Counter-ions that a name gives are not always drawn.
Experiments:
[1] = system: RAW264.7 immortalized murine macrophages; experiment: TNFα secretion assay (LPS-induced, ELISA); format: cell-based; details: RAW264.7 cells, 4 hrs
Experimental: The TNFα assay quantifies secreted TNFα from RAW264.7 immortalized murine macrophages as an indicator of inflammation. The cells were concurrently treated with LPS (as an inducer of inflammation) and a titration of test molecules or control compounds for 4 hrs. After the incubation period, the media was harvested and assayed via an ELISA assay. ODs of experimental samples are fit to those of a standard curve to extrapolate the TNFα concentration. IC50 values were calculated by fitting a curve to experimental values with the controls as the top and bottom limits of the curve. Selected compounds provided herein were subjected to this assay.

ROCK1 = ROCK1 (Homo sapiens (Human), UniProt Q13464); experiment: Kinase assay ROCK1; format: biochemical; details: HCl salt
Experimental: (§1) Inhibition of various kinases was assayed.

PKA = PKA (Homo sapiens, UniProt P17612); experiment: Kinase assay PKA; format: biochemical; details: HCl salt
Experimental: as §1

PKCd = PKCd (Homo sapiens (Human), UniProt Q05655); experiment: Kinase assay PKCd; format: biochemical; details: HCl salt
Experimental: as §1

PKCh = PKCh (Homo sapiens (Human), UniProt P24723); experiment: Kinase assay PKCh; format: biochemical; details: HCl salt
Experimental: as §1

PTM = PTM assay; format: cell-based; details: HCl salt
Experimental: as §1

AKT1 = AKT1 (Homo sapiens (Human), UniProt P31749); experiment: Kinase assay AKT1; format: biochemical; details: HCl salt
Experimental: as §1

PKCe = PKCe (Homo sapiens (Human), UniProt Q02156); experiment: Kinase assay PKCe; format: biochemical; details: HCl salt
Experimental: as §1

ROCK2 = ROCK2 (Homo sapiens (Human), UniProt O75116); experiment: Kinase assay ROCK2; format: biochemical; details: HCl salt
Experimental: as §1

TYK2 = TYK2 (Homo sapiens (Human), UniProt P29597); experiment: Kinase assay TYK2; format: biochemical; details: HCl salt
Experimental: as §1

JAK3 = JAK3 (Homo sapiens (Human), UniProt P52333); experiment: Kinase assay JAK3; format: biochemical; details: HCl salt
Experimental: as §1

JAK1 = JAK1 (Homo sapiens (Human), UniProt P23458); experiment: Kinase assay JAK1; format: biochemical; details: HCl salt
Experimental: as §1

IKKb = IKKb (Homo sapiens (Human), UniProt O14920); experiment: Kinase assay IKKb; format: biochemical; details: HCl salt
Experimental: as §1

NFkB = NFkB assay; format: cell-based; details: HCl salt
Experimental: as §1

in vitro = format: cell-based
JAK2 = JAK2 (Homo sapiens (Human), UniProt O60674); experiment: Kinase assay JAK2; format: biochemical; details: HCl salt
HTM = HTM assay; format: cell-based; details: HCl salt
Experimental: as §1

PKCd, sequence (Q05655 whole entry, species assumed): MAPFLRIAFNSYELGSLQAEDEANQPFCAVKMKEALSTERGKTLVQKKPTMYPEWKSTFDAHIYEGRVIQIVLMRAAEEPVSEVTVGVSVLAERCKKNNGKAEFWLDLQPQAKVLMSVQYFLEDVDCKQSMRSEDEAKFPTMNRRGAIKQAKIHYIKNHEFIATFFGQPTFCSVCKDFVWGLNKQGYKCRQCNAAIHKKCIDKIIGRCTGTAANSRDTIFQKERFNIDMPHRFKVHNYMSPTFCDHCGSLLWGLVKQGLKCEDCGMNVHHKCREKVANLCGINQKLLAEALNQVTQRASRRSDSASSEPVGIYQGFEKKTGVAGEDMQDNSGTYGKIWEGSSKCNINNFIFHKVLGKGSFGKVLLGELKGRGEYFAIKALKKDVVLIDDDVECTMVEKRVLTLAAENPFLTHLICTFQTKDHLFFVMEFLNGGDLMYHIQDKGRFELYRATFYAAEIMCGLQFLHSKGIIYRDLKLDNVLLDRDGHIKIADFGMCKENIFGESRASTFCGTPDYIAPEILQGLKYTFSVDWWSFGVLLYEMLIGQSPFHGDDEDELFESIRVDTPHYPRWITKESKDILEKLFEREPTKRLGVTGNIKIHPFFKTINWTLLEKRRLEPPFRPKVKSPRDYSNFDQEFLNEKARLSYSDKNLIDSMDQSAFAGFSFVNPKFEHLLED
JAK3, sequence (P52333 whole entry, species assumed): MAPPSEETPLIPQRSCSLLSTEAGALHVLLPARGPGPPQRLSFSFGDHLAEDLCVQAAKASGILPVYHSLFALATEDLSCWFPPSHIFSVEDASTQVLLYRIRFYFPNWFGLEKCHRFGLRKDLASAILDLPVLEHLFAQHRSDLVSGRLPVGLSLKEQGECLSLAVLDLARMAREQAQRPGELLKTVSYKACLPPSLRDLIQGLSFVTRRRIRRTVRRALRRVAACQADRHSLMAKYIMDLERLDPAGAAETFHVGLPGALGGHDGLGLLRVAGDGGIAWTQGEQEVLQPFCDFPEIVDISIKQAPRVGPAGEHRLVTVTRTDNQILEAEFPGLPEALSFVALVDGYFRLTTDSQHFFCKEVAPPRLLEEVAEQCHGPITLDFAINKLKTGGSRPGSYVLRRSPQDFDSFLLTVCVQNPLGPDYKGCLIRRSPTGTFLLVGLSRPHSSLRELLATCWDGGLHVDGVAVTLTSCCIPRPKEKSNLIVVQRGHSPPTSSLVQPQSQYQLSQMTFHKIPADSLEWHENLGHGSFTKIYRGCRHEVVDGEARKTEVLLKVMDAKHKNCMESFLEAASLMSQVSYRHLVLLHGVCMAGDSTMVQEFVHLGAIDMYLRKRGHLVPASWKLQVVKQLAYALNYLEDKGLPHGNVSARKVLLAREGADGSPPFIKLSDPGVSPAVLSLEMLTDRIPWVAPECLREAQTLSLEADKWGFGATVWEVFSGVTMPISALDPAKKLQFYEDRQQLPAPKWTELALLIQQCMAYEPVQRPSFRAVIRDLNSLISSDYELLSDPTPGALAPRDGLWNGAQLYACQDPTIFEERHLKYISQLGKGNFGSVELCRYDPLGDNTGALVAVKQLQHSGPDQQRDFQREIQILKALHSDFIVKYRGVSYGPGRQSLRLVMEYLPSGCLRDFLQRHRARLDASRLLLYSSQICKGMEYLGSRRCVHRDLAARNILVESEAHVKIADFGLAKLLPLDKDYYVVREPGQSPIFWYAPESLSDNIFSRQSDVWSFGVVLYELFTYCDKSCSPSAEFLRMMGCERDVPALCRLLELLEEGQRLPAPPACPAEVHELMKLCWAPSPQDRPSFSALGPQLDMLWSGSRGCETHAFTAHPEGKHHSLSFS
PKCh, sequence (P24723 whole entry): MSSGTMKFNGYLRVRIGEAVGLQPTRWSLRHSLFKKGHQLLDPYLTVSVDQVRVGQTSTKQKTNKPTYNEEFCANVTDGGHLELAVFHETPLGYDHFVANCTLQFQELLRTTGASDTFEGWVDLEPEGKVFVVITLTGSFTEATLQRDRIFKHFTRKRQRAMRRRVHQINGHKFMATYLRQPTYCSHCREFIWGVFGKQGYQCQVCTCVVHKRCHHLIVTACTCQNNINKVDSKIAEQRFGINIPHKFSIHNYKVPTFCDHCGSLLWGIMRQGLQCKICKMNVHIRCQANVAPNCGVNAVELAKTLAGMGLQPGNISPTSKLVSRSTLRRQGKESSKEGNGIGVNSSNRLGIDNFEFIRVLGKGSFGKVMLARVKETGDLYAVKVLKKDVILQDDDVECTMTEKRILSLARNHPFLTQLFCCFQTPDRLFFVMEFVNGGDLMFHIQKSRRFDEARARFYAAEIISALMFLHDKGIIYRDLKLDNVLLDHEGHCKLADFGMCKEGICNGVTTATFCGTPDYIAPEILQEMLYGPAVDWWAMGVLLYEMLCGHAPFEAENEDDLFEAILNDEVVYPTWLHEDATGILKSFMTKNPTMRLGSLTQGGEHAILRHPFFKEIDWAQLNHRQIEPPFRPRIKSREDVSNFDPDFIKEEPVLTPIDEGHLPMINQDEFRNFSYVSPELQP
ROCK2, sequence (O75116 whole entry, species assumed): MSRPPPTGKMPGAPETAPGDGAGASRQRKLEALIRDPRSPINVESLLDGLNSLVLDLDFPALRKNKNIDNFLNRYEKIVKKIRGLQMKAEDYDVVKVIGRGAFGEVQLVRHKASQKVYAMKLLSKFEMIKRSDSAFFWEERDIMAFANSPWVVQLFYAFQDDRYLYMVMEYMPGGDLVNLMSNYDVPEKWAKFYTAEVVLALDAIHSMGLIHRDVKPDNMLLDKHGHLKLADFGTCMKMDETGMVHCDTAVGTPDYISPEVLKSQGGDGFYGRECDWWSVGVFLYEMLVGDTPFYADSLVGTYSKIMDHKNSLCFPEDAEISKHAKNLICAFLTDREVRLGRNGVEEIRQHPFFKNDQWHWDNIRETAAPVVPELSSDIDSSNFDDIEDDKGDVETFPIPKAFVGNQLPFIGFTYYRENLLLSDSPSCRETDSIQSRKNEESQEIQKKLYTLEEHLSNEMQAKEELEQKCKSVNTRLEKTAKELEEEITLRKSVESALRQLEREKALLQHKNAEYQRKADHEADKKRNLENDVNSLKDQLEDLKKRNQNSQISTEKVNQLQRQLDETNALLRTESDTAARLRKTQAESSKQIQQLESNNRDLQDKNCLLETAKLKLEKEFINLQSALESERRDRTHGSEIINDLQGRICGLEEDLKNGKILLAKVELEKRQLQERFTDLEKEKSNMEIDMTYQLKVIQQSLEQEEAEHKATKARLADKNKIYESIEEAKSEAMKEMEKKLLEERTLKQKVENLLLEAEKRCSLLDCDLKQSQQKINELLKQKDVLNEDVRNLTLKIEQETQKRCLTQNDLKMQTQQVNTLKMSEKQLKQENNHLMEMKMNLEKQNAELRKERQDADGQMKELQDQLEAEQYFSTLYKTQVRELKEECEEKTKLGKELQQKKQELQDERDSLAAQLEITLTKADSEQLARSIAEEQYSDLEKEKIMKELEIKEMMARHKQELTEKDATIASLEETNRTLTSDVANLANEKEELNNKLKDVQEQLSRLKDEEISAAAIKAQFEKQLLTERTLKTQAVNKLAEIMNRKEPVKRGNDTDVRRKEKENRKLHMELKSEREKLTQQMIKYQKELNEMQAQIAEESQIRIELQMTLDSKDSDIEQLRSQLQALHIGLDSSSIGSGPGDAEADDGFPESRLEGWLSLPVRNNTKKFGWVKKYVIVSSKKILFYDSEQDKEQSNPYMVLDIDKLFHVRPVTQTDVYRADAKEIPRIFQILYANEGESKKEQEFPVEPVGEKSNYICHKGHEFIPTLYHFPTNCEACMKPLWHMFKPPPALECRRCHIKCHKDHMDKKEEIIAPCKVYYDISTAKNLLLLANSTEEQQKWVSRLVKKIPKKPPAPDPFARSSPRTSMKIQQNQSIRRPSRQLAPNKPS
JAK2, sequence (O60674 whole entry, species assumed): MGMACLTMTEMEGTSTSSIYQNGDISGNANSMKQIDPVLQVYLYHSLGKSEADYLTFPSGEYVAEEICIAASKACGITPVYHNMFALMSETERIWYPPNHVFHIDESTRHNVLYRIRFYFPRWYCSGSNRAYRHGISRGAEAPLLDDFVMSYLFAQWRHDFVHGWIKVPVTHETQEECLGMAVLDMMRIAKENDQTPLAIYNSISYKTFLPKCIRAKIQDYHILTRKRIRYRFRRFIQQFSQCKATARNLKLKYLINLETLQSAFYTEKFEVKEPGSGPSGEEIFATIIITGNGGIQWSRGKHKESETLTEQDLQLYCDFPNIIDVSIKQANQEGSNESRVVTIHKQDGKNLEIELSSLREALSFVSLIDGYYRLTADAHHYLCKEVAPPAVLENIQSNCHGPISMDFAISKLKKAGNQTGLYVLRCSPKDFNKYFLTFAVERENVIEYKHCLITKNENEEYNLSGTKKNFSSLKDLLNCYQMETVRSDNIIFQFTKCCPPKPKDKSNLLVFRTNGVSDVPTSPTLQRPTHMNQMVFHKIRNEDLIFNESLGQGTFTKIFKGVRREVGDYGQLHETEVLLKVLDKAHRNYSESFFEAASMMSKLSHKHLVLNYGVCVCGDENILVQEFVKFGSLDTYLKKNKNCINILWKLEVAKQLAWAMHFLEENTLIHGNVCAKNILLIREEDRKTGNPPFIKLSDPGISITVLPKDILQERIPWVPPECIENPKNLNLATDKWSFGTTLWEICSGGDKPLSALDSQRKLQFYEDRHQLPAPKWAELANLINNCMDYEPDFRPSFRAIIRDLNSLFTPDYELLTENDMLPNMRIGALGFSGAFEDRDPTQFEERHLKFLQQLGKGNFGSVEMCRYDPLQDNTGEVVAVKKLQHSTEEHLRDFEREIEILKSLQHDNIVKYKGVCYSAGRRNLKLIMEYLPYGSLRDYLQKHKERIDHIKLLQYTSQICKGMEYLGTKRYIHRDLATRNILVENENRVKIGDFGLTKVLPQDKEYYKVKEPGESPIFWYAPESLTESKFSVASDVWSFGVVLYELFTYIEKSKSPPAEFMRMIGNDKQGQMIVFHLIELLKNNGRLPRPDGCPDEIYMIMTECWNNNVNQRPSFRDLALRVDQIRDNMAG

SMILES: C[C@@H]1C[C@H]2[C@@H]3CCC4=CC(=O)C=C[C@]4(C)[C@@]3(F)[C@@H](O)C[C@]2(C)[C@@]1(O)C(=O)COC(=O)CCC(=O)OCc1ccc(C(CNC(=O)OC(C)(C)C)C(=O)Nc2ccc3cnccc3c2)cc1 (stereo partly drawn) [Example 4, 4-(3-((tert-butoxycarbonyl)amino)-1-(isoquinolin-6-ylamino)-1-oxopropan-2-yl)benzyl (2-((8S,9R,10S,11S,13S,14S,16R,17R)-9-fluoro-11,17-dihydroxy-10,13,16-trimethyl-3-oxo-6,7,8,9,10,11,12,13,14,15,16,17-dodecahydro-3H-cyclopenta[a]phenanthren-17-yl)-2-oxoethyl) succinate]
- IC50 ([1]; Mus musculus): 230 nM

SMILES: C[C@@H]1C[C@H]2[C@@H]3CCC4=CC(=O)C=C[C@]4(C)[C@@]3(F)[C@@H](O)C[C@]2(C)[C@@]1(O)C(=O)COC(=O)CCC(=O)OCc1ccc(C(CCNC(=O)OC(C)(C)C)C(=O)Nc2ccc3cnccc3c2)cc1 (some centres unmarked) [Example 11]
- IC50 ([1]; Mus musculus): 429 nM

SMILES: C[C@@H]1C[C@H]2[C@@H]3CCC4=CC(=O)C=C[C@]4(C)[C@@]3(F)[C@@H](O)C[C@]2(C)[C@@]1(O)C(=O)COC(=O)CCC(=O)OCc1ccc(C(CCN)C(=O)Nc2ccc3cnccc3c2)cc1 (some centres unmarked) [Example 12]
- IC50 ([1]; Mus musculus): 90.5 nM

SMILES: CC(C)(C)OC(=O)NC[C@@H](C(=O)Nc1ccc2cnccc2c1)c1ccc(COC(=O)CCC(=O)OCC(=O)[C@@]2(O)CC[C@H]3[C@@H]4CCC5=CC(=O)C=C[C@]5(C)[C@H]4[C@@H](O)C[C@@]32C)cc1 [Example 14]
- IC50 ([1]; Mus musculus): 620 nM

SMILES: C[C@]12C=CC(=O)C=C1CC[C@@H]1[C@@H]2[C@@H](O)C[C@@]2(C)[C@H]1CC[C@]2(O)C(=O)COC(=O)C1CC1C(=O)OCc1ccc([C@@H](CN)C(=O)Nc2ccc3cnccc3c2)cc1 (some centres unmarked) [Example 19]
- IC50 (ROCK1): 58 nM
- IC50 (PKA): 332 nM
- IC50 (PKCd): 589 nM
- IC50 (PKCh): 436 nM
- IC50 (PTM): 706 nM
- IC50 (AKT1): 2540 nM
- IC50 (PKCe): 4160 nM
- IC50 (ROCK2): 27 nM
- IC50 (TYK2): 50000 nM
- IC50 (JAK3): 2570 nM
- IC50 (JAK1): 9570 nM
- IC50 (IKKb): 50000 nM
- IC50 (NFkB): 10000 nM

SMILES: C[C@@H]1C[C@H]2[C@@H]3CCC4=CC(=O)C=C[C@]4(C)[C@@]3(F)[C@@H](O)C[C@]2(C)[C@@]1(O)C(=O)COC(=O)CCC(=O)OCc1ccc(C(C(=O)Nc2ccc3cnccc3c2)N(C)C)cc1 (some centres unmarked) [Example 20]
- IC50 ([1]; Mus musculus): 144 nM

SMILES: CN(C)C(C(=O)Nc1ccc2cnccc2c1)c1ccc(COC(=O)CCC(=O)OCC(=O)[C@@]2(O)CC[C@H]3[C@@H]4CCC5=CC(=O)C=C[C@]5(C)[C@H]4[C@@H](O)C[C@@]32C)cc1 (some centres unmarked) [Example 21]
- IC50 ([1]; Mus musculus): 1650 nM

SMILES: CN(C)C(C(=O)Nc1ccc2cnccc2c1)c1ccc(COC(=O)CCC(=O)OCC(=O)[C@@]23OC(C)(C)O[C@@H]2C[C@H]2[C@@H]4C[C@H](F)C5=CC(=O)C=C[C@]5(C)[C@@]4(F)[C@@H](O)C[C@@]23C)cc1 (some centres unmarked) [Example 23]
- IC50 ([1]; Mus musculus): 4.5 nM

SMILES: C[C@@H]1C[C@H]2[C@@H]3CCC4=CC(=O)C=C[C@]4(C)[C@@]3(F)[C@@H](O)C[C@]2(C)[C@@]1(O)C(=O)COC(=O)CCC(=O)OCc1ccc([C@@H](CN)C(=O)Nc2ccc3cnccc3c2)cc1 [Example 25]
- IC50 (ROCK1): 25 nM
- IC50 (PKA): 138 nM
- IC50 (PKCd): 225 nM
- IC50 (PKCh): 173 nM
- IC50 (in vitro): 100000 nM
- IC50 (PTM): 295 nM
- IC50 (AKT1): 955 nM
- IC50 (JAK2): 40900 nM
- IC50 (PKCe): 1580 nM
- IC50 (ROCK2): 17 nM
- IC50 (TYK2): 50000 nM
- IC50 (JAK3): 21400 nM
- IC50 (HTM): 4.5 nM
- IC50 (JAK1): 50000 nM
- IC50 (IKKb): 38500 nM
- IC50 (NFkB): 39 nM

SMILES: C[C@@H]1C[C@H]2[C@@H]3CCC4=CC(=O)C=C[C@]4(C)[C@@]3(F)[C@@H](O)C[C@]2(C)[C@@]1(O)C(=O)COC(=O)CCC(=O)OCCc1ccc(C(CN)C(=O)Nc2ccc3cnccc3c2)cc1 (some centres unmarked) [Example 26]
- IC50 ([1]; Mus musculus): 227 nM

SMILES: C[C@@H]1C[C@H]2[C@@H]3CCC4=CC(=O)C=C[C@]4(C)[C@@]3(F)[C@@H](O)C[C@]2(C)[C@@]1(O)C(=O)COC(=O)C1CC1C(=O)OCc1ccc([C@@H](CN)C(=O)Nc2ccc3cnccc3c2)cc1 (some centres unmarked) [Example 27]
- IC50 (ROCK1): 29 nM
- IC50 (PKA): 317 nM
- IC50 (PKCd): 509 nM
- IC50 (PKCh): 331 nM
- IC50 (in vitro): 100000 nM
- IC50 (PTM): 145 nM
- IC50 (AKT1): 2640 nM
- IC50 (JAK2): 41700 nM
- IC50 (PKCe): 3460 nM
- IC50 (ROCK2): 13 nM
- IC50 (TYK2): 50000 nM
- IC50 (JAK3): 11600 nM
- IC50 (HTM): 6 nM
- IC50 (JAK1): 50000 nM
- IC50 (IKKb): 46800 nM
- IC50 (NFkB): 1790 nM

SMILES: CN(C)C(C(=O)Nc1ccc2cnccc2c1)c1ccc(COC(=O)CCC(=O)OCC(=O)[C@@]23OC(C)(C)O[C@@H]2C[C@H]2[C@@H]4CCC5=CC(=O)C=C[C@]5(C)[C@@]4(F)[C@@H](O)C[C@@]23C)cc1 (some centres unmarked) [Example 28]
- IC50 ([1]; Mus musculus): 15.5 nM

SMILES: CC(C)(C)OC(=O)NC[C@@H](C(=O)Nc1ccc2cnccc2c1)c1ccc(COC(=O)CCC(=O)OCC(=O)[C@@]23OC(C)(C)O[C@@H]2C[C@H]2[C@@H]4CCC5=CC(=O)C=C[C@]5(C)[C@@]4(F)[C@@H](O)C[C@@]23C)cc1 [Example 29]
- IC50 ([1]; Mus musculus): 71 nM

SMILES: CC(C)(C)OC(=O)NCC(C(=O)Nc1ccc2cnccc2c1)c1ccc(CCOC(=O)CCC(=O)OCC(=O)[C@@]23OC(C)(C)O[C@@H]2C[C@H]2[C@@H]4C[C@H](F)C5=CC(=O)C=C[C@]5(C)[C@@]4(F)[C@@H](O)C[C@@]23C)cc1 (some centres unmarked) [Example 31]
- IC50 ([1]; Mus musculus): 5460 nM

SMILES: C[C@@H]1C[C@H]2[C@@H]3CCC4=CC(=O)C=C[C@]4(C)[C@@]3(F)[C@@H](O)C[C@]2(C)[C@@]1(O)C(=O)COC(=O)C1CC1C(=O)OCCc1ccc(C(CN)C(=O)Nc2ccc3cnccc3c2)cc1 (some centres unmarked) [Example 37]
- IC50 ([1]; Mus musculus): 3100 nM

SMILES: CC1(C)O[C@@H]2C[C@H]3[C@@H]4C[C@H](F)C5=CC(=O)C=C[C@]5(C)[C@@]4(F)[C@@H](O)C[C@]3(C)[C@]2(C(=O)COC(=O)CCC(=O)OCc2ccc([C@@H](CN)C(=O)Nc3ccc4cnccc4c3)cc2)O1 [Example 40]
- IC50 (ROCK1): 19 nM
- IC50 (PKA): 71 nM
- IC50 (PKCd): 152 nM
- IC50 (PKCh): 190 nM
- IC50 (PTM): 217 nM
- IC50 (AKT1): 523 nM
- IC50 (PKCe): 244 nM
- IC50 (ROCK2): 13 nM
- IC50 (TYK2): 50000 nM
- IC50 (JAK3): 17700 nM
- IC50 (HTM): 11 nM
- IC50 (JAK1): 50000 nM
- IC50 (IKKb): 32900 nM
- IC50 (NFkB): 28 nM

SMILES: C[C@@H]1C[C@H]2[C@@H]3CCC4=CC(=O)C=C[C@]4(C)[C@@]3(F)[C@@H](O)C[C@]2(C)[C@@]1(O)C(=O)COC(=O)c1ccc(C(=O)OCc2ccc([C@@H](CN)C(=O)Nc3ccc4cnccc4c3)cc2)cc1 [Example 66, 4-((S)-3-amino-1-(isoquinolin-6-ylamino)-1-oxopropan-2-yl)benzyl (2-((8S,9R,10S,11S,13S,14S,16R,17R)-9-fluoro-11,17-dihydroxy-10,13,16-trimethyl-3-oxo-6,7,8,9,10,11,12,13,14,15,16,17-dodecahydro-3H-cyclopenta[a]phenanthren-17-yl)-2-oxoethyl) terephthalate dihydrochloride]
- IC50 (ROCK1): 36 nM
- IC50 (PKA): 117 nM
- IC50 (PKCd): 357 nM
- IC50 (PKCh): 282 nM
- IC50 (in vitro): 100000 nM
- IC50 (PTM): 358 nM
- IC50 (AKT1): 1360 nM
- IC50 (JAK2): 36200 nM
- IC50 (PKCe): 3610 nM
- IC50 (ROCK2): 26 nM
- IC50 (TYK2): 50000 nM
- IC50 (JAK3): 43200 nM
- IC50 (HTM): 15 nM
- IC50 (JAK1): 50000 nM
- IC50 (IKKb): 50000 nM
- IC50 (NFkB): 55 nM

SMILES: C[C@@H]1C[C@H]2[C@@H]3CCC4=CC(=O)C=C[C@]4(C)[C@@]3(F)[C@@H](O)C[C@]2(C)[C@@]1(O)C(=O)COC(=O)c1cccc([C@@H]2C[C@H]2C(=O)Nc2ccc3cnccc3c2)c1 [Example 90, 2-((8S,9R,10S,11S,13S,14S,16R,17R)-9-fluoro-11,17-dihydroxy-10,13,16-trimethyl-3-oxo-6,7,8,9,10,11,12,13,14,15,16,17-dodecahydro-3H-cyclopenta[a]phenanthren-17-yl)-2-oxoethyl 3-((1R,2R)-2-(isoquinolin-6-ylcarbamoyl)cyclopropyl)benzoate]
- IC50 ([1]; Mus musculus): 300 nM

SMILES: C[C@@H]1C[C@H]2[C@@H]3CCC4=CC(=O)C=C[C@]4(C)[C@@]3(F)[C@@H](O)C[C@]2(C)[C@@]1(O)C(=O)COC(=O)c1cccc([C@@H]2C[C@H]2C(=O)Nc2ccc3cnccc3c2F)c1 [Example 91]
- IC50 [1]: 102 nM
